The test has as its system D458 medulloblastoma cells. The test is described as follows: Drug resistance experiment: barcoded D458 cells passaged in JQ1, barcode sequencing and deconvolution. As to conditions: FIG. 4; barcoded cells passaged with JQ1 (2 uM per method b225); same barcodes recovered in replicate experiments. Type of test: cell-based. How it is done: Drug resistance experiments—D458 and JQ1. Barcoded D458 medulloblastoma cells (fingerprint verified) cells were treated with DMSO or JQ1 (obtained from Drs Bradner and Qi) at a concentration of 2 uM in multiple replicate plates (5×DMSO and 5× each drug concentration). 4 million cells of barcoded D458 cells were plated in each replicate plate in presence of DMSO or JQ1. Barcoded JQ1 cells were also frozen in 10% DMSO/FCS for future retrievable. In addition, cells were also collected for DNA-extraction to determine barcode representation at the early-time point. Cells were retreated with compound every 3-4 days. Cells were counted, passaged or split every 3-4 days, maintaining a minimum representation of 4 million cells. Cells were cultured in DMSO or JQ1 for a total of […] prior to harvesting for DNA extraction for barcode sequencing and deconvolution.
Library deconvolution. Genomic DNA was extracted and prepared for deep sequencing as in (JJ 2017). Libraries were sequenced to a minimum depth of 18 million reads, corresponding to a barcode coverage of >80×.

Each structure is given as a SMILES string.

We go through one molecule from US12433803B2, “Methods and compositions for studying cell evolution” (THE BROAD INSTITUTE, INC., priority 2017, dated 2025).

With `Cc1sc2c(c1C)C(c1ccc(Cl)cc1)=N[C@@H](CC(=O)OC(C)(C)C)c1nnc(C)n1-2` [JQ1], the “Percentage of barcodes that persist following treatment with JQ1” value came out at 5%.
